# US9370515B2, “Mixed lineage kinase inhibitors and method of treatments” (CALIFIA BIO, INC., priority 2013, dated 2016)
# Molecular target: MLK-3 (Homo sapiens, UniProt Q16584)
# Assay: Biochemical assay for the inhibition of kinase activity for MLK-3 (33P-ATP, HOTSPOT filter binding)
# Conditions: activated MLK-3 20 nM, ATP 50 μM, myelin basic protein 20 μM, 20 minutes room temperature
# Protocol: Biochemical Assay for the Inhibition of Kinase Activity for MLK-3: Myelin basic protein (20 μM final concentration) is dissolved in 20 mM Hepes (pH 7.5) containing […], […], 0.02% Brij35, 0.02 mg/ml BSA, 0.1 μM Na3VO4, 2 mM DTT, and 1% DMSO. Activated MLK-3 is added and mixed (20 nM final concentration), and inhibitors are added in DMSO. ^33P-ATP (specific activity 500 μCi/μL) is delivered into the reaction mixture to initiate the reaction (ATP concentration is 50 μM) and the mixture is incubated at room temperature for 20 minutes. % Activity is determined using a proprietary HOTSPOT™ microfluidic filter binding technology. See, Expert Opin. Drug Discov. 2008 June; 3(6): 607-621.
# MLK-3, sequence (Q16584 whole entry): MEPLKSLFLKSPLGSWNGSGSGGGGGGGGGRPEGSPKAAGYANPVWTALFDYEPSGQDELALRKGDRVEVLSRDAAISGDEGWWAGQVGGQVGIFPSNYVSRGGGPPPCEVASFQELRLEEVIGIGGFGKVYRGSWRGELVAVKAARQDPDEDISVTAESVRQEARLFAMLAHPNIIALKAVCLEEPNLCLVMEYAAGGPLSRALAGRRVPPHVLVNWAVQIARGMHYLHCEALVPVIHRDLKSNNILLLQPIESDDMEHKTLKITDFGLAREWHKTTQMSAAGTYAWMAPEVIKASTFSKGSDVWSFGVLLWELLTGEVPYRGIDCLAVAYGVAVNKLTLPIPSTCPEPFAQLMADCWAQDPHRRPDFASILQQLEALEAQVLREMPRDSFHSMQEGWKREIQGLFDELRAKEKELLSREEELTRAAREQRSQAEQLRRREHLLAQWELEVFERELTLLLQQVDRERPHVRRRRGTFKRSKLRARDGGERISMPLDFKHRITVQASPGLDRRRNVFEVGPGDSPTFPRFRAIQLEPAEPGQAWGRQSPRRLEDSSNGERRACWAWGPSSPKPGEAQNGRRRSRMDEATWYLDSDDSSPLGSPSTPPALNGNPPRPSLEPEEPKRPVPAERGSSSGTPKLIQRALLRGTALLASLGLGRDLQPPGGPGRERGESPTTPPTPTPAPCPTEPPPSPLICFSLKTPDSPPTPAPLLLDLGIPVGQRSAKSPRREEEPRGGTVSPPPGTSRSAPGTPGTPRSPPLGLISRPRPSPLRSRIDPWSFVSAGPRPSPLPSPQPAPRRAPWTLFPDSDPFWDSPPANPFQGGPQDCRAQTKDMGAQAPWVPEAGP
row,IC50,Compound
1,100 to 500 nM,"CO[C@H]1CC[C@H](N(C)c2ccc3ncc(-c4cc5cncc(C)c5s4)n3n2)CC1 [Compound 220, N-((1r,4r)-4-methoxycyclohexyl)-N-methyl-3-(7-methylthieno[3,2-c]pyridin-2-yl)imidazo[1,2-b]pyridazin-6-amine]"
2,100 to 500 nM,"COc1cc2cc(-c3cnc4ccc(N[C@H]5CC[C@H](OC)CC5)nn34)sc2cc1OC [Compound 201, trans-3-(5,6-dimethoxybenzo[b]thiophen-2-yl)-N-(4-methoxycyclohexyl)imidazo[1,2-b]pyridazin-6-amine]"
3,< 5000 nM,"COc1ccc(Nc2ccc3ncc(-c4cc5cc(C)ccc5s4)n3n2)cc1OC [Compound 191, N-(3,4-dimethoxyphenyl)-3-(5-methylbenzo[b]thiophen-2-yl)imidazo[1,2-b]pyridazin-6-amine]"
4,100 to 500 nM,CO[C@H]1CC[C@H](Nc2ccc3ncc(-c4cc5cncc(C)c5s4)n3n2)CC1 [Compound 216]
5,< 5000 nM,"COc1cc(Nc2ccc3ncc(-c4cc5cccc(OC(F)(F)F)c5s4)n3n2)ccc1OC(F)(F)F [Compound 190, N-(3-methoxy-4-(trifluoromethoxy)phenyl)-3-(7-(trifluoromethoxy)benzo[b]thiophen-2-yl)imidazo[1,2-b]pyridazin-6-amine]"
6,< 100 nM,"COc1cncc2cc(-c3cnc4ccc(N[C@H]5CC[C@H](O)CC5)nn34)sc12 [Compound 213, trans-4-(3-(7-methoxythieno[3,2-c]pyridin-2-yl)imidazo[1,2-b]pyridazin-6-ylamino)cyclohexanol]"
7,< 100 nM,"COc1ccc(Nc2ccc3ncc(-c4cc5ccncc5s4)n3n2)cc1OC [Compound 218, N-(3,4-dimethoxyphenyl)-3-(thieno[2,3-c]pyridin-2-yl)imidazo[1,2-b]pyridazin-6-amine]"
8,< 5000 nM,"COc1ccc(Nc2ccc3ncc(-c4cc5ncccc5s4)n3n2)cc1OC [Compound 208, N-(3,4-dimethoxyphenyl)-3-(thieno[3,2-b]pyridin-2-yl)imidazo[1,2-b]pyridazin-6-amine]"
9,< 5000 nM,"COc1ccc(Nc2ccc3ncc(-c4cc5cncc(OC)c5s4)n3n2)cc1OC [Compound 210, N-(3,4-dimethoxyphenyl)-3-(7-methoxythieno[3,2-c]pyridin-2-yl)imidazo[1,2-b]pyridazin-6-amine]"
10,500 to 1000 nM,"O[C@H]1CC[C@H](Nc2ccc3ncc(-c4cc5ncccc5s4)n3n2)CC1 [Compound 209, trans-4-(3-(thieno[3,2-b]pyridin-2-yl)imidazo[1,2-b]pyridazin-6-ylamino)cyclohexanol]"
11,100 to 500 nM,"COc1ccc(Nc2ccc3ncc(-c4cc5cncc(C)c5s4)n3n2)cc1OC [Compound 214, N-(3,4-dimethoxyphenyl)-3-(7-methylthieno[3,2-c]pyridin-2-yl)imidazo[1,2-b]pyridazin-6-amine]"
12,100 to 500 nM,"O[C@H]1CC[C@H](Nc2ccc3ncc(-c4cc5cnccc5s4)n3n2)CC1 [Compound 207, trans-(3-(thieno[3,2-c]pyridin-2-yl)imidazo[1,2-b]pyridazin-6-ylamino)cyclohexanol]"
13,100 to 500 nM,"COc1ccc(Nc2ccc3ncc(-c4cc5cccnc5s4)n3n2)cc1OC [Compound 204, N-(3,4-dimethoxyphenyl)-3-(thieno[2,3-b]pyridin-2-yl)imidazo[1,2-b]pyridazin-6-amine]"

# The remaining lines, values behind:
row,Compound,IC50
1,"OCC1CCCN(c2ccc3ncc(-c4cc5ccccc5s4)n3n2)C1 (centres unmarked) [Compound 132, (1-(3-(benzo[b]thiophen-2-yl)imidazo[1,2-b]pyridazin-6-yl)piperidin-3-yl)methanol]",500 to 1000 nM
2,"Oc1ccc(-c2cnc3ccc(N[C@H]4CC[C@H](O)CC4)nn23)cc1 [Compound 102, trans-4-(6-(4-hydroxycyclohexylamino)imidazo[1,2-b]pyridazin-3-yl)phenol]",< 5000 nM
3,"O[C@H]1CC[C@H](Nc2ccc3ncc(-c4ccc5ccccc5c4)n3n2)CC1 [Compound 161, trans-4-(3-(naphthalen-3-yl)imidazo[1,2-b]pyridazin-6-ylamino)cyclohexanol]",100 to 500 nM
4,"CCCN(C)c1ccc2ncc(-c3ccc4[nH]ccc4c3)n2n1 [Compound 158, 3-(1H-indol-5-yl)-N-methyl-N-propylimidazo[1,2-b]pyridazin-6-amine]",< 5000 nM
5,"CCOc1cccc2cc(-c3cnc4ccc(Nc5ccc(OC)c(OC)c5)nn34)sc12 [Compound 186, 3-(7-ethoxybenzo[b]thiophen-2-yl)-N-(3,4-dimethoxyphenyl)imidazo[1,2-b]pyridazin-6-amine]",100 to 500 nM
6,"O[C@H]1CC[C@H](Nc2ccc3ncc(-c4cc5ccccc5[nH]4)n3n2)CC1 [Compound 88, trans-4-(3-(1H-indol-2-yl)imidazo[1,2-b]pyridazin-6-ylamino)cyclohexanol]",100 to 500 nM
7,"COc1ccc(N(C)c2ccc3ncc(-c4cc5cc(OC)c(OC)cc5s4)n3n2)cc1OC [Compound 75, 3-(5,6-dimethoxybenzo[b]thiophen-2-yl)-N-(3,4-dimethoxyphenyl)-N-methylimidazo[1,2-b]pyridazin-6-amine]",100 to 500 nM
8,"COc1ccc2[nH]c(-c3cnc4ccc(Nc5ccc(OC)c(OC)c5)nn34)cc2c1 [Compound 3, 3-(5-methoxy-1H-indol-2-yl)-N-(3,4-dimethoxyphenyl)imidazo[1,2-b]pyridazin-6-amine]",100 to 500 nM
9,"COc1cc(Nc2ccc3ncc(-c4cc5cccc(OC(F)(F)F)c5s4)n3n2)ccc1OC(F)F [Compound 189, N-(4-(difluoromethoxy)-3-methoxyphenyl)-3-(7-(trifluoromethoxy)benzo[b]thiophen-2-yl)imidazo[1,2-b]pyridazin-6-amine]",< 5000 nM
10,"COc1ccc(Nc2ccc3ncc(-c4cc5cccc(OC)c5s4)n3n2)cc1OC(F)(F)F [Compound 185, N-(4-methoxy-3-(trifluoromethoxy)phenyl)-3-(7-methoxybenzo[b]thiophen-2-yl)imidazo[1,2-b]pyridazin-6-amine]",< 5000 nM
11,"CN1CCN(Cc2cccc(-c3ccc4ncc(-c5cc6ccccc6s5)n4n3)c2)CC1 [Compound 40, 3-(benzo[b]thiophen-2-yl)-6-(3-((4-methylpiperazin-1-yl)methyl)phenyl)imidazo[1,2-b]pyridazine]",< 5000 nM
12,"O=c1cccc(Nc2ccc3ncc(-c4cc5ccccc5s4)n3n2)[nH]1 [Compound 45, 6-(3-(benzo[b]thiophen-2-yl)imidazo[1,2-b]pyridazin-6-ylamino)pyridin-2-ol]",< 5000 nM
13,"COc1cc2cc(-c3cnc4ccc(Nc5cccc(C(=O)O)c5)nn34)sc2cc1OC [Compound 71, 3-(3-(5,6-dimethoxybenzo[b]thiophen-2-yl)imidazo[1,2-b]pyridazin-6-ylamino)benzoic acid]",< 100 nM
14,"CC(CO)CCNc1ccc2ncc(-c3cc4ccccc4s3)n2n1 (centres unmarked) [Compound 138, 4-(3-(benzo[b]thiophen-2-yl)imidazo[1,2-b]pyridazin-6-ylamino)-2-methylbutan-1-ol]",100 to 500 nM
15,"COc1ccc2cc(-c3cnc4ccc(N[C@H]5CC[C@H](O)CC5)nn34)sc2c1 [Compound 172, trans-4-(3-(6-methoxybenzo[b]thiophen-2-yl)imidazo[1,2-b]pyridazin-6-ylamino)cyclohexanol]",100 to 500 nM
16,"COc1cc(Nc2ccc3ncc(-c4cc5ccccc5s4)n3n2)ccc1OCC1CC1 [Compound 28, 3-(benzo[b]thiophen-2-yl)-N-(4-(cyclopropylmethoxy)-3-methoxyphenyl)imidazo[1,2-b]pyridazin-6-amine]",< 5000 nM
17,"c1cc2cc(-c3cnc4ccc(NCC5CC5)nn34)ccc2[nH]1 [Compound 150, N-(cyclopropylmethyl)-3-(1H-indol-5-yl)imidazo[1,2-b]pyridazin-6-amine]",< 5000 nM
18,"COc1ccc2sc(-c3cnc4ccc(N[C@H]5CC[C@H](O)CC5)nn34)cc2c1 [Compound 168, trans-4-(3-(5-methoxybenzo[b]thiophen-2-yl)imidazo[1,2-b]pyridazin-6-ylamino)cyclohexanol]",100 to 500 nM
19,"OCCCCNc1ccc2ncc(-c3cc4ccccc4s3)n2n1 [Compound 110, 4-(3-(benzo[b]thiophen-2-yl)imidazo[1,2-b]pyridazin-6-ylamino)butan-1-ol]",100 to 500 nM
20,"COc1cc2cc(-c3cnc4ccc(-c5ccc(CN6CCN(C)CC6)cc5)nn34)sc2cc1OC [Compound 73, 3-(5,6-dimethoxybenzo[b]thiophen-2-yl)-6-(4-((4-methylpiperazin-1-yl)methyl)phenyl)imidazo[1,2-b]pyridazine]",500 to 1000 nM
21,"COc1ccc2cc(-c3cnc4ccc(Nc5ccc(OC)c(OC)c5)nn34)sc2c1 [Compound 72, 3-(6-methoxybenzo[b]thiophen-2-yl)-N-(3,4-dimethoxyphenyl)imidazo[1,2-b]pyridazin-6-amine]",100 to 500 nM
22,"CC(C)CNc1ccc2ncc(-c3ccc4[nH]ccc4c3)n2n1 [Compound 142, 3-(1H-indol-5-yl)-N-isobutylimidazo[1,2-b]pyridazin-6-amine]",< 5000 nM
23,"CN1CCN(c2cccc(Nc3ccc4ncc(-c5ccc6[nH]ccc6c5)n4n3)c2)CC1 [Compound 56, 3-(1H-indol-5-yl)-N-(3-(4-methylpiperazin-1-yl)phenyl)imidazo[1,2-b]pyridazin-6-amine]",500 to 1000 nM
24,"COc1cc2cc(-c3cnc4ccc(NCCC(C)CO)nn34)sc2cc1OC (centres unmarked) [Compound 171, 4-(3-(5,6-dimethoxybenzo[b]thiophen-2-yl)imidazo[1,2-b]pyridazin-6-ylamino)-2-methylbutan-1-ol]",< 100 nM
25,"COc1ccc(Nc2ccc3ncc(-c4ccc(CO)s4)n3n2)cc1OC [Compound 84, (5-(6-(3,4-dimethoxyphenylamino)imidazo[1,2-b]pyridazin-3-yl)thiophen-2-yl)methanol]",< 5000 nM
